Measurements reported in the supplement of paper PMC3493320.
pIC50: −log10 of the molar value.

Tested on: NCI-H295R
Assay: IC50 (antiproliferative, ATP content)
Conditions: 48 h
Outline: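 Following overnight culture of adrenocortical carcinoma cells (1500 per well) in 1536-well plates with serum-free ITS-supplemented DMEM, library compounds were pin-transferred at 8 final concentrations from 0.6 nM to 46 µM. Incubation lasted 48 h at 37 °C, 5% CO2, and the CellTiter-Glo signal was read after 20 min at room temperature. Data were fitted with a four-parameter logistic model. Each IC50 came from that fit after normalisation to vehicle and positive-control wells, and compounds without a concentration response were reported as above the top dose.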

SMILES	pIC50
CN[C@@H]1[C@@H](O)[C@@H](O[C@@H]2[C@@H](O)[C@H](OC3OC(CN)=CCC3N)[C@@H](N)C[C@H]2N)OC[C@]1(C)O.CN[C@@H]1[C@@H](O)[C@@H](O[C@@H]2[C@@H](O)[C@H](OC3OC(CN)=CCC3N)[C@@H](N)C[C@H]2N)OC[C@]1(C)O.O=S(=O)(O)O.O=S(=O)(O)O.O=S(=O)(O)O.O=S(=O)(O)O.O=S(=O)(O)O (stereo partly drawn)	< 4.34
CN(C)C(=O)Oc1cc(OC(=O)N(C)C)cc(C(O)CNC(C)(C)C)c1.Cl (stereo not drawn)	< 4.34
C[N+]1(C)CCCC(OC(=O)C(O)(c2ccccc2)c2ccccc2)C1.[Br-] (stereo not drawn)	< 4.34
O=[N+]([O-])/N=C1\NCCN1Cc1ccc(Cl)nc1	< 4.34
COP(=S)(OC)Oc1ccc(SC)c(C)c1	< 4.34
Oc1ccc2[nH]cc(CCCCN3CC=C(c4ccccc4)CC3)c2c1	< 4.34
C[C@]12CCC(=O)C(O)=C1CC[C@@H]1[C@@H]2CC[C@]2(C)C(=O)CC[C@@H]12	< 4.34
CCN(CC)C(C)C(=O)c1ccccc1.Cl (stereo not drawn)	< 4.34
O=C2N1[C@]([C@@]([H])2NC(C3=C(C)ON=C3C(C(Cl)=CC=C4)=C4F)=O)([H])SC(C)(C)[C@@H]1[C@@]([O-])=O.O.[Na+]	< 4.34
F[C@@]([C@](C=C4)(C)C3=CC4=O)2[C@@H](O)C[C@]([C@](C5)([H])[C@@]([H])2CC3)(C)[C@@]1([C@](CO)=O)[C@@H]5OC(C)(C)O1	< 4.34
CN1CCCC(CN2c3ccccc3Sc3ccccc32)C1 (stereo not drawn)	< 4.34
CCCCc1cc2ccccc2c(OCCN(C)C)n1.Cl	< 4.34
CCC(=O)NCC[C@@H]1CCc2ccc3c(c21)CCO3	< 4.34
COS(=O)(=O)[O-].C[N+]1(C)CCCCC1COC(=O)C(O)(c1ccccc1)c1ccccc1 (stereo not drawn)	< 4.34
Cc1ncc([N+](=O)[O-])n1CC(O)CCl (stereo not drawn)	< 4.34
Clc1ccc2c(c1)C(c1ccccc1)=NCc1nncn1-2	< 4.34
CC(CC=O)CCCC(C)(C)O (stereo not drawn)	< 4.34
[O-]S(=O)(=O)OC.C[N+]1(C)CC\C(CC1)=C(\c2ccccc2)c3ccccc3	< 4.34
CC1(O)CCC(C(C)(C)O)CC1 (stereo not drawn)	< 4.34
NC[C@H]1O[C@H](O[C@H]2[C@H](O)[C@@H](O[C@H]3O[C@H](CO)[C@@H](O)[C@H](N)[C@H]3O)[C@H](N)C[C@@H]2N)[C@H](O)[C@@H](O)[C@@H]1O.O=S(=O)(O)O	< 4.34

SMILES	pIC50
CC(=O)NO	< 4.34
C[C@@H](CN(C)C)CN1c2ccccc2Sc2ccccc21.C[C@@H](CN(C)C)CN1c2ccccc2Sc2ccccc21.O=C(O)[C@@H](O)[C@@H](O)C(=O)O	< 4.34
Cc1c(C)c2c(c(C)c1OC(=O)c1cccnc1)CC[C@@](C)(CCC[C@H](C)CCC[C@H](C)CCCC(C)C)O2	< 4.34
O=C(O)C(N12)=[C@@]([C@@H]3OCCC3)S[C@]1([H])[C@]([C@@H](C)O)([H])C2=O	< 4.34
COc1cc(C)nc(-n2nc(C)cc2OC)n1	< 4.34
CC(C)CC(=O)N[C@H](C(=O)N[C@H](C(=O)N[C@@H](CC(C)C)[C@@H](O)CC(=O)N[C@@H](C)C(=O)N[C@@H](CC(C)C)[C@@H](O)CC(=O)O)C(C)C)C(C)C	< 4.34
O=S(=O)(O)c1ccc(O)cc1	< 4.34
CCC(C)C(N)C(=O)O (stereo not drawn)	< 4.34
Cc1cn[nH]c1	< 4.34
CN1CCN(c2cc3c(cc2F)c(=O)c(C(=O)O)cn3-c2ccc(F)cc2)CC1.Cl	< 4.34
CNC1CCCN(c2c(F)cc3c(=O)c(C(=O)O)cn(C4CC4)c3c2OC)C1 (stereo not drawn)	< 4.34
O=C(O)CCNC(=O)c1ccccc1	< 4.34
C[C@H](CCC(=O)O)[C@H]1CC[C@H]2[C@@H]3[C@H](O)C[C@@H]4C[C@H](O)CC[C@]4(C)[C@H]3CC[C@]12C	< 4.34
CCC1=C(C)CN(C(=O)NCCc2ccc(S(=O)(=O)NC(=O)N[C@H]3CC[C@H](C)CC3)cc2)C1=O	< 4.34
Cc1ncc2n1-c1ccc(Cl)cc1C(c1ccccc1F)=NC2.Cl	< 4.34
COc1cc(S(C)=O)ccc1-c1nc2ncccc2[nH]1 (stereo not drawn)	< 4.34
FC(F)OC(F)(F)C(F)Cl (stereo not drawn)	< 4.34
CCOC(=O)C1=C[C@@H](OC(CC)CC)[C@H](NC(C)=O)[C@@H](N)C1.O=C(O)C(O)C(O)C(=O)O	< 4.34
O=P(CC(N2C[C@H]([C@H]3CCCCC3)C[C@H]2[C@@](O)=O)=O)(OC(OC(CC)=O)C(C)C)CCCCC1=CC=CC=C1 (stereo partly drawn)	< 4.34
CC1=C(O[C@H](CCNC)[C@@]2=CC=CC=C2)C=CC=C1.Cl	< 4.34

SMILES	pIC50
CCOC(N)=O	< 4.34
CCCCCCCCCCOCC(O)CN.Cl (stereo not drawn)	< 4.34
Cc1ccccc1-n1c(C)nc2ccccc2c1=O	< 4.34
COc1ccc(C(=O)N2CCCC2=O)cc1	< 4.34
[C@@]153[C@@H](\C(O)=C(/C[C@@]1([C@H]2CC[C@]4([C@H]([C@@H]2CC3)CC[C@@H]4O)C)C)C#N)O5	< 4.34
CCCCCCCCOc1ccccc1C(=O)Nc1ccc(C(=O)OCC[N+](C)(CC)CC)cc1.[Br-]	< 4.34
O=C(O)[C@H](O)c1ccccc1	< 4.34
Nc1ncnc2c1ncn2[C@H]1CC[C@@H](CO)O1	< 4.34
CS(=O)(=O)c1ccc([C@@H](O)[C@@H](CF)NC(=O)C(Cl)Cl)cc1	< 4.34
COc1ccc(Cl)cc1C(=O)NCCc1ccc(S(=O)(=O)NC(=O)NC2CCCCC2)cc1	< 4.34
CN1C(=S)CN=C(c2ccccc2)c2cc(Cl)ccc21	< 4.34
CC(=O)Nc1ccc(OC(=O)c2ccccc2O)cc1	< 4.34
COc1ccc2[nH]cc(CCNC(C)=O)c2c1	< 4.34
CCN(CC)CCC(=O)N1c2ccccc2Sc2ccc(C(F)(F)F)cc21	< 4.34
CC1(C)CCC(C)(C)c2cc(NC(=O)c3ccc(C(=O)O)cc3)ccc21	< 4.34
O=C(NCN1CCOCC1)c1cnccn1	< 4.34
Cc1cc(C(C)(C)C)cc(C)c1CC1=NCCN1.Cl	< 4.34
Cc1oncc1C(=O)Nc1ccc(C(F)(F)F)cc1	< 4.34

Second part, the compound after the results:

pIC50	SMILES
< 4.34	Nc1ccc(S(=O)(=O)NCc2ccccc2)cc1
< 4.34	CCCCCNC(=N)N/N=C/c1c[nH]c2ccc(OC)cc12
< 4.34	Cl.Cl.NCCNc1cccc2ccccc12
< 4.34	C=C1CC[C@@H]2[C@](C)(CO)[C@H](O)CC[C@@]2(C)[C@@H]1C/C=C1/C(=O)OC[C@H]1O
< 4.34	OC[C@@H](O)[C@H](O)[C@H](O)[C@@H](O)CO
< 4.34	Cc1nc2ccccc2n1Cc1ccc(Cl)cc1
< 4.34	CCOC(=O)[C@H](CCc1ccccc1)N[C@@H](C)C(=O)N1Cc2ccccc2C[C@H]1C(=O)O.Cl
< 4.34	O=C(C)N1[C@](C[C@](O)([H])C1)([H])[C@@](O)=O
< 4.34	Cl.c1ccc(CN(CC2=NCCN2)c2ccccc2)cc1
< 4.34	CC(=O)N/N=C/c1ccc([N+](=O)[O-])o1
< 4.34	Cc1ccccc1/N=N/c1ccc(/N=N/c2c(O)ccc3ccccc23)c(C)c1
< 4.34	O=C(O)CCC(=O)C(=O)O
< 4.34	Cc1ncc([N+](=O)[O-])n1CCO
< 4.34	CN1CCN(CC(=O)N2c3ccccc3C(=O)Nc3cccnc32)CC1
< 4.34	CC(=O)Oc1cccc(C)c1
< 4.34	Cc1oc(=O)oc1CN1CCN(c2cc3c(cc2F)c(=O)c(C(=O)O)c2n3C(C)S2)CC1 (stereo not drawn)
< 4.34	NCCNCCNCCNCCN
< 4.34	NNC(=O)CP(=O)(c1ccccc1)c1ccccc1
< 4.34	C[C@H]1O[C@H]1P(=O)([O-])[O-].[Ca+2]
< 4.34	NC1CCCCC1.NC1CCCCC1.O=P(O)(O)OC[C@H](O)CO

pIC50	SMILES
< 4.34	[C@@H]1(O[C@H](CS1)N\2C(\N=C(/C=C/2)N)=O)CO
< 4.34	NCCNCCNCCN
< 4.34	C[C@H](CCCC(C)(C)O)[C@H]1CC[C@H]2[C@@H]3CC=C4C[C@@H](O)CC[C@]4(C)[C@H]3CC[C@]12C
< 4.34	C[C@H](N)[C@H](O)c1cccc(O)c1.O=C(O)[C@@H](O)[C@@H](O)C(=O)O
< 4.34	CO/N=C(\C(=O)N[C@@H]1C(=O)N2C(C(=O)[O-])=CCS[C@H]12)c1csc(N)n1.[Na+]
< 4.34	CC1(C)O[C@@H]2[C@@H](CO[C@@]3(COS(N)(=O)=O)OC(C)(C)O[C@@H]23)O1
< 4.34	CN1CCC[C@@H]1c1cccnc1
< 4.34	O=C1[C@]([C@](CC4)([H])[C@@]3([H])[C@@](C1)(C)[C@@](CC3)(O)[C@@](CO)=O)([H])[C@](C=C2)(C)C4=CC2=O
< 4.34	CC1=C(C)C(=O)C(C(CCCCCC(=O)O)c2ccccc2)=C(C)C1=O (stereo not drawn)
< 4.34	CNC(=NC#N)NCCSCc1nc[nH]c1C
< 4.34	CC=CC(=O)N(CC)c1ccccc1C
< 4.34	NS(=O)(=O)c1cc2c(cc1Cl)NC(Cc1ccccc1)NS2(=O)=O (stereo not drawn)
< 4.34	O=C(O)c1ccccc1-c1ccc(C(F)(F)F)cc1
< 4.34	CCN(CC)CCC(=O)N1c2ccccc2Sc2ccc(Cl)cc21
< 4.34	CC(=O)N[C@@H](CCC(=O)O)C(=O)O
< 4.34	Nc1nc2c(ncn2COCCO)c(=O)[nH]1
< 4.34	CN(C)CCCN1c2ccccc2C(C)(C)c2ccccc21
< 4.34	FC(F)(F)C(F)(F)C(F)(F)C(F)(F)C(F)(F)C(F)(F)C(F)(F)C(F)(F)Br
< 4.34	CC(=O)OCC(=O)[C@@]53/N=C(/C)O[C@@H]5C[C@H]2[C@@H]4CC\C1=C\C(=O)\C=C/[C@]1(C)[C@H]4[C@@H](O)C[C@@]23C
< 4.34	CC1(C)S[C@@H]2[C@H](NC(=O)C(C(=O)[O-])c3ccsc3)C(=O)N2[C@H]1C(=O)[O-].[Na+].[Na+] (stereo partly drawn)
